What all share (experiment): KiNativ, MOLM13 live cells
Type in all cases: cell-based

Test [1] addresses IKKa (Homo sapiens, UniProt O15111). Conditions: MOLM-13; 100 nM, 2 hours; Lys2; read-out: Inhibition vs DMSO. Here is the method:
(§1) Samples were analyzed by KiNativ in situ kinase profiling by ActivX Biosciences.

Test [2] addresses SYK (Homo sapiens, UniProt P43405). Particulars: 100 nM, 2 hours. Here is the method:
as §1

Test [3] concerns the target T1, IRAK4 (Homo sapiens, UniProt Q9NWZ3).
T1 sequence (Q9NWZ3 1-460): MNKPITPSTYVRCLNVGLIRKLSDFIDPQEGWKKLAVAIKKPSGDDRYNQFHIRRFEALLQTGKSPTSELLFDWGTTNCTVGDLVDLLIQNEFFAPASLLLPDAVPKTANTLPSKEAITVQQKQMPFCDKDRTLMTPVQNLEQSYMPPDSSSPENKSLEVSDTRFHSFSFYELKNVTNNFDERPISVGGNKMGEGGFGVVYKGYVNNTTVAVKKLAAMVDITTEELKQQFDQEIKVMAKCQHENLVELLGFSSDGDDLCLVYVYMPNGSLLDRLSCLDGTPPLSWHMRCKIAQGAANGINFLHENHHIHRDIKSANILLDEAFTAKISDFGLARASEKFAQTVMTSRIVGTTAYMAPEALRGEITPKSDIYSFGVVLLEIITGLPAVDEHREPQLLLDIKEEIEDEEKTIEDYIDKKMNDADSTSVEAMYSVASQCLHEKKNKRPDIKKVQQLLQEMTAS
Particulars: 100 nM, 2 hours. Here is the method:
as §1

Test [4] has as its target T2, JAK1 domain2 (Homo sapiens, UniProt P23458).
T2 construct: JAK1 domain2
Conditions: 100 nM, 2 hours. Here is the method:
as §1

Test [5] addresses CDK4 (Homo sapiens, UniProt P11802). Particulars: MOLM-13; 100 nM, 2 hours; Lys2; read-out: Inhibition vs DMSO. Here is the method: as §1
In test [6] the target is FGR (Homo sapiens, UniProt P09769). Particulars: MOLM-13; 100 nM, 2 hours; Activation Loop; read-out: Inhibition vs DMSO. Here is the method: as §1
Test [7] addresses LKB1 (Homo sapiens, UniProt Q15831). Particulars: MOLM-13; 100 nM, 2 hours; Lys2; read-out: Inhibition vs DMSO. Here is the method: as §1
The target of test [8] is T3, IKKb (Homo sapiens, UniProt O14920).
T3 sequence (O14920 1-756): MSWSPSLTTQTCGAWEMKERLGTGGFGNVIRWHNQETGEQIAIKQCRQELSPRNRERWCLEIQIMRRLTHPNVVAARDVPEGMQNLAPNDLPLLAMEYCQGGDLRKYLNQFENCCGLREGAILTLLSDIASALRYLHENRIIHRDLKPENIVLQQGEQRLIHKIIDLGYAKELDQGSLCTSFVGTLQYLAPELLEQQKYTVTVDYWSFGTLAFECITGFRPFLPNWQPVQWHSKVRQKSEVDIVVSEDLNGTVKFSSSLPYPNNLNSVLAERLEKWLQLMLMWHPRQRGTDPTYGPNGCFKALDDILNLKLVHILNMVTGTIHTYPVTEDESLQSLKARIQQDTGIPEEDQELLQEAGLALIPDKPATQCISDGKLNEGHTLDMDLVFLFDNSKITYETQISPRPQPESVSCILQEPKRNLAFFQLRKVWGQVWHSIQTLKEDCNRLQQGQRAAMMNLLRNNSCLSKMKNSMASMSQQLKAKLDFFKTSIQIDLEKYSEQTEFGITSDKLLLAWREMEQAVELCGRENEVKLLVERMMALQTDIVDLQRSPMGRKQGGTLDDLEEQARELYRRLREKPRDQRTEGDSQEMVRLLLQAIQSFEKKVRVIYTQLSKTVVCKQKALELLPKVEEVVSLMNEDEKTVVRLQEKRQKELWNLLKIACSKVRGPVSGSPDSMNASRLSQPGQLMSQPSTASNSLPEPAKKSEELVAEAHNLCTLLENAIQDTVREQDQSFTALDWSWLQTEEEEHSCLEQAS
Conditions: MOLM-13, 2 h, 100 nM. Here is the method:
as §1

The target in test [9] is MAP3K3 (Homo sapiens, UniProt Q99759). Particulars: MOLM-13; 100 nM, 2 hours; Lys1; read-out: Inhibition vs DMSO. Here is the method: as §1
Test [10] deals with CDK9 (Homo sapiens, UniProt P50750). Conditions: MOLM-13; 100 nM, 2 hours; ATP Loop; read-out: Inhibition vs DMSO. Here is the method:
as §1

The target of test [11] is PIP5K3 (Homo sapiens, UniProt Q9Y2I7). Conditions: 100 nM, 2 hours; ATP. Here is the method:
as §1

The target of test [12] is AKT1 (Homo sapiens, UniProt P31749). Conditions: MOLM-13; 100 nM, 2 hours; ATP Loop; read-out: Inhibition vs DMSO. Here is the method:
as §1

Molecules are shown by their SMILES. Like-named read-outs stand apart in the source and are kept apart here.

T2 sequence (P23458 whole entry, the tested form may be a part): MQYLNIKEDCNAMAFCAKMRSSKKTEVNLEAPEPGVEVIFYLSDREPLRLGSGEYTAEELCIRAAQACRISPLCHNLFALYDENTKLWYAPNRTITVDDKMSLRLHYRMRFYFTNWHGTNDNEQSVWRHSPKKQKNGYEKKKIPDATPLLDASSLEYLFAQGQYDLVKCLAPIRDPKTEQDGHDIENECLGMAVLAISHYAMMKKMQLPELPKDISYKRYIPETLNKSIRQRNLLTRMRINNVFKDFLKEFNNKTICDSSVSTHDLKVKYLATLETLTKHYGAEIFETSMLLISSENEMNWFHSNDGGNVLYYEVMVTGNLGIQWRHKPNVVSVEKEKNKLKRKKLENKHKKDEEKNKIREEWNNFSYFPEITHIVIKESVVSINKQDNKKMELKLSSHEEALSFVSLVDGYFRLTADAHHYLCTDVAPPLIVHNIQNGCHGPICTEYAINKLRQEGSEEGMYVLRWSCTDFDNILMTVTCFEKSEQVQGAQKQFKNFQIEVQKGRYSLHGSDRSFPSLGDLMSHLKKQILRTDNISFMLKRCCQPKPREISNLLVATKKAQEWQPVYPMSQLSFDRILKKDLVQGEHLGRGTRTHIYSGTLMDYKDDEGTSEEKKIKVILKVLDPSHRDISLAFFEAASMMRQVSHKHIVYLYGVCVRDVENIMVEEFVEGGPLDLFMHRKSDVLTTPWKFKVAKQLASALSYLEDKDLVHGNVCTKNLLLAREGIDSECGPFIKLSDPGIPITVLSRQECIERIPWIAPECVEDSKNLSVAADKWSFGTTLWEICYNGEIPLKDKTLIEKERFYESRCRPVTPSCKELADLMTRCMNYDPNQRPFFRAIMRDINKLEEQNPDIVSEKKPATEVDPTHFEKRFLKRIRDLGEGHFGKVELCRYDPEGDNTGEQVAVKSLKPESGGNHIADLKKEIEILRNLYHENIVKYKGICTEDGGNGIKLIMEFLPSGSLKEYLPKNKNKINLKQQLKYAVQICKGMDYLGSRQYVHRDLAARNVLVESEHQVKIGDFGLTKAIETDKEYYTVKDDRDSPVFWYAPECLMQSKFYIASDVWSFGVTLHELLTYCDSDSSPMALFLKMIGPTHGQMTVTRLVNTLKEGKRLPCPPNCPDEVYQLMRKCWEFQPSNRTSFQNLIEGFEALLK
CDK4, sequence (P11802 2-303 limits assumed): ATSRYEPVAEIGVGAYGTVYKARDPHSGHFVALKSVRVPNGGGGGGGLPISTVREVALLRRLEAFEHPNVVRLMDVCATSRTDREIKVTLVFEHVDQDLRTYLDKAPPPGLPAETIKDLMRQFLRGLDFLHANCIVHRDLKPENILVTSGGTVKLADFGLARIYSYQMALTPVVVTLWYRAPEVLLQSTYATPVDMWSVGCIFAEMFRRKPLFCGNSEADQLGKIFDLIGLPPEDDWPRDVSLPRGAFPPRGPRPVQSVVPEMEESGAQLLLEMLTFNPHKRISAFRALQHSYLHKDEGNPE
MAP3K3, sequence (Q99759 whole entry): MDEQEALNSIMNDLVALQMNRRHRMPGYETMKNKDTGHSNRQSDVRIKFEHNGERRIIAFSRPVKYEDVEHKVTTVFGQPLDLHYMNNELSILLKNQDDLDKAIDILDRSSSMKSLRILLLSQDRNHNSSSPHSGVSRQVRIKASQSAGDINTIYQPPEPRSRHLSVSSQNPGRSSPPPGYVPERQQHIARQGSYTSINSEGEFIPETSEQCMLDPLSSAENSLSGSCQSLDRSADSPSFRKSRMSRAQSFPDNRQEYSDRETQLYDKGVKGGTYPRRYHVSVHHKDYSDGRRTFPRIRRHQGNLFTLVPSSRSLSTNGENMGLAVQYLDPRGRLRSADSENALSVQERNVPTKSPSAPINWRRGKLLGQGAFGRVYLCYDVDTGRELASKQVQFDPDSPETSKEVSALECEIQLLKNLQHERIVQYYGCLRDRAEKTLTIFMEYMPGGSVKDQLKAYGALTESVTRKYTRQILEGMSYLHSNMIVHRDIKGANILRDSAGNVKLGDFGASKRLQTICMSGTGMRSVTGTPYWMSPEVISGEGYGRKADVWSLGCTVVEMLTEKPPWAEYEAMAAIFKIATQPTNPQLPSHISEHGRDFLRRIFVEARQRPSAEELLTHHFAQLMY
IKKa, sequence (O15111 whole entry): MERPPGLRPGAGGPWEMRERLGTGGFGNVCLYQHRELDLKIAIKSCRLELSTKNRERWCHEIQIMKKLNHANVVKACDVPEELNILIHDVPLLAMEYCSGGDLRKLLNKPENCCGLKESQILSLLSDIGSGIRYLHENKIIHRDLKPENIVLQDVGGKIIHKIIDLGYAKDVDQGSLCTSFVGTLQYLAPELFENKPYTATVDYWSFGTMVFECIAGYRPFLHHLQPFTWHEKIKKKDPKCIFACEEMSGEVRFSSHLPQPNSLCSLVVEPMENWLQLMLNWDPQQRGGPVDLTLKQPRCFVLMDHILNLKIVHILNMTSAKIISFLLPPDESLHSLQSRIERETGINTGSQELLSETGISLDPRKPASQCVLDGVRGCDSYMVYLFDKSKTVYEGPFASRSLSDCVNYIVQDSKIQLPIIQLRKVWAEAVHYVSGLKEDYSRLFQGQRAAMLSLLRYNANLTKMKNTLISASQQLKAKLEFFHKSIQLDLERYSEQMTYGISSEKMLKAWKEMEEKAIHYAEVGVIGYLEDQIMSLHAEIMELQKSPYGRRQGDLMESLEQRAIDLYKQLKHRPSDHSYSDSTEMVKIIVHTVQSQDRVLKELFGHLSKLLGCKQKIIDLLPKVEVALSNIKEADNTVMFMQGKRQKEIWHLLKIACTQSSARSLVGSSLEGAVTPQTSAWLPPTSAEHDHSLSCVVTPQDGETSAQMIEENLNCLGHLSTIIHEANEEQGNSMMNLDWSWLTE
FGR, sequence (P09769 whole entry): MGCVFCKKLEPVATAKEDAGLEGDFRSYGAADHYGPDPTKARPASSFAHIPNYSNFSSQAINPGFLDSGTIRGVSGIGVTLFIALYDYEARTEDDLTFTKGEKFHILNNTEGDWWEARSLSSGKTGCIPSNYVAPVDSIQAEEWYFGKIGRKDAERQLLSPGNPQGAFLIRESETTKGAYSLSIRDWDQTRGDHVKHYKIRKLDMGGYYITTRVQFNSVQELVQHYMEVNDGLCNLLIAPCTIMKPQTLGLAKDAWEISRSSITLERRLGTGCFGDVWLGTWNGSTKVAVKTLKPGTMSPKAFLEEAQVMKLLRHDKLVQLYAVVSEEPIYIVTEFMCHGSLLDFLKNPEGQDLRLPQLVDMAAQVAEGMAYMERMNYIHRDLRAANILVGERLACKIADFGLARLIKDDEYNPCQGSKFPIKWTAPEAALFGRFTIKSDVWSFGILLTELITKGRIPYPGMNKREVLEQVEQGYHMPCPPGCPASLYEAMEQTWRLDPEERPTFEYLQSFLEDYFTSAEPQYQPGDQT
AKT1, sequence (P31749 whole entry): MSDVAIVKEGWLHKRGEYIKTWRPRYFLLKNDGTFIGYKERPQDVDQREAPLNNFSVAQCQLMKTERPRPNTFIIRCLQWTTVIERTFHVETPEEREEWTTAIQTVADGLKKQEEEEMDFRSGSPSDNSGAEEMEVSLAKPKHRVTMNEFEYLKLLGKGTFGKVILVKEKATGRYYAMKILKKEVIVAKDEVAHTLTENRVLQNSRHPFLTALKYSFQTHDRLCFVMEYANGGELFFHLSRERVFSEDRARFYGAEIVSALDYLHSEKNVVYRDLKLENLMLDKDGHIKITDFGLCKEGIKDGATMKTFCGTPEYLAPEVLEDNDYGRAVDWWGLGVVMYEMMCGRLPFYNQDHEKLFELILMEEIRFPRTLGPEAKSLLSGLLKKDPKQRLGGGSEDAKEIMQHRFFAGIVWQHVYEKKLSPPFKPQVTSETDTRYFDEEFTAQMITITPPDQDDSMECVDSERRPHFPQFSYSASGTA
CDK9, sequence (P50750 whole entry): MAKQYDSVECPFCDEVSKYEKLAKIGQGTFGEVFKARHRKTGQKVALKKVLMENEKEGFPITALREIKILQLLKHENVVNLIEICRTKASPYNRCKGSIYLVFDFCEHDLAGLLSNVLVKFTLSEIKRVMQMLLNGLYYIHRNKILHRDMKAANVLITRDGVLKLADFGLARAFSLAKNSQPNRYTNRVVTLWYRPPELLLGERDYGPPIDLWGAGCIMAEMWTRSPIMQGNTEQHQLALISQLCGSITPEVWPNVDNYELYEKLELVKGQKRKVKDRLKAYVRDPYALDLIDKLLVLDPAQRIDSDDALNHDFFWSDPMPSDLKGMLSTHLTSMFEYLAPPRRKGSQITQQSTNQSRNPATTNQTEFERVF
CDK9, sequence (O60563 whole entry partner): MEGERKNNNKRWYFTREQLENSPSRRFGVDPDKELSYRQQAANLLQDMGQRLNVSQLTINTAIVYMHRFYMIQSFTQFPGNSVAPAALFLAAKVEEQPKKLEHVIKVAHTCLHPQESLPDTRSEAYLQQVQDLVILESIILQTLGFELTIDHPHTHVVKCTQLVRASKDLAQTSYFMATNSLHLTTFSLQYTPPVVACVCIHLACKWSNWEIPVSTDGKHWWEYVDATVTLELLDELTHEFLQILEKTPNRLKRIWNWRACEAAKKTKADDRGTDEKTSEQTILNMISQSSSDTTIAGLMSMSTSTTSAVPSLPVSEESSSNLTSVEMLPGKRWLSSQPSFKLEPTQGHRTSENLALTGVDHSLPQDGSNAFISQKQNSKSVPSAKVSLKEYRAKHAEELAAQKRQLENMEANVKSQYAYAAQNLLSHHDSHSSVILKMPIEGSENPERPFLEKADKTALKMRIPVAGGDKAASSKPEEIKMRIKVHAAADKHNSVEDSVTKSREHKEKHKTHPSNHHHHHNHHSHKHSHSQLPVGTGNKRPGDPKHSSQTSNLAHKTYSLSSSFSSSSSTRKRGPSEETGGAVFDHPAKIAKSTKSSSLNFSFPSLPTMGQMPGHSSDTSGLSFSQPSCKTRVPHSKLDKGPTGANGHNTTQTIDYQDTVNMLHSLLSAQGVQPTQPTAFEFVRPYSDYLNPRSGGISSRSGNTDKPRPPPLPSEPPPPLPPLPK

As usually defined, the inhibition is the drop in the measured response relative to a control, in per cent. For `CN1CCN(Cc2ccc(Nc3ncc(Cl)c(Nc4ccccc4S(=O)(=O)N(C)C)n3)cc2)CC1` [TP-0903], the inhibition at 0.1 µM in [1] was 2.9%; in [5], 9.8%; in [6], -35.3%; in [7], 18.2%; in [8] (Lys1, read-out: Inhibition vs DMSO), -4.8%; in test [8] (Lys2, read-out: Inhibition vs DMSO), -10.5%. Besides, the results for the inhibition at 0.1 µM in [9], in [10] and in test [12] were 13%, -34.4% and -54.3%, respectively. For the same compound, the “Inhibition vs DMSO” value in test [2] (Activation Loop, AQTHGKWPVK) is listed as 27.9%; in test [2] (Activation Loop, ISDFGLSKALR) it was 17.6%; in test [2] (Lys1), 8.1%; in test [3] (Lys1) it was 13.2%; in test [3] (Lys2), 18.7%; in test [4] (Activation Loop), -23.7%. The “Inhibition vs DMSO” value in [4] (Lys1) is listed as -597.8%; in [11], 50.9%.

For the origin of these results see publication PMC7714403 (JCI Insight, 2020).
